Assay results reported in article PMC7731283, “Synthesis and Biological Evaluation of Halogenated E-Stilbenols as Promising Antiaging Agents” (Molecules, 2020).

What was measured:
[1] = Log P by RP-HPLC (HPLC-PDA), extrapolation of Log k to 0% MeOH; type: physicochemical; conditions: for Log k / Retention factor (k): RP-C18
Experimental: For each compound, the retention time was reported at different percentages of mobile phases (Table 1). See Materials and Methods and Supplementary Materials for the detailed procedures. (1) k= tR− tM/tM where tR is the retention time of the sample and tM is the retention time of blank (methanol).
Stock solutions of each compound were prepared as follow: 1 mg of the synthesized compound and RSV (control) was weighted and dissolved in 1 mL of dimethyl sulfoxide (DMSO). The working solutions were prepared in methanol at 100 µg/mL. 20 µL of working solutions was injected in HPLC system without pre-treatment.
The HPLC analyses for all new compounds were carried out in isocratic conditions with Milli-Q Water (18.2 MΩ-cm at 25 °C) as solvent A and MeOH as solvent B in different percentages reported in […]. RP-C18 stationary phase (LiChrosorb C18, 150 × 4.6 mm, 5 µm) column was used. All compounds were detected at their maximum wavelength: 322 nm for 1, 301 nm for 2, 324 nm for 3, 324 nm for 4, 373 nm for 5, 322 nm for 6, 320 nm for 7, whereas RSV was detected at 306 nm. The total run time was kept until sample elution.

C2C12 cells [2] = assay: MTT assay, cell vitality/proliferation; type: cell-based, mouse
Experimental: The oxidative stress plays one of the key roles in cell’s life path. For these reasons, to evaluate the possible cytotoxic effects of compounds 1–7 and their effect on the cell proliferative capacity and to define a suitable concentration range, all the new synthesized compounds 1–7 were evaluated for their cytotoxic activity at three different concentrations (1, 10 and 100 μM) via standard MTT assay, using C2C12 cell line (Figure 3). Due to well-known antioxidant and neurodegenerative senescence prevention abilities in addition to enhancing the beneficial effects of physical exercise on the skeletal muscles of the elderly, RSV was used as reference compound [54, 55]. […] For this reason, we performed the same assay also at 48 h for the compounds 5, 6 and RSV (Figure 4).
Prompted by the results obtained for compound 6 as a scavenge ROS due the presence of halogenated groups, we used the widely C2C12 mouse cells as a myogenic model, to study its antioxidant effects following both the evaluation of superoxide anion radical concentration and chemical insults, such as from H2O2. C2C12 cells (CRL 1772; American Type Culture Collection, Rockville, MD, USA) were grown in Dulbecco’s modified Eagle’s medium (DMEM; Euroclone, Pero, Italy) containing 20% foetal bovine serum (Euroclone), […] L-glutamine (Euroclone) and 100 IU mL^−1 penicillin and 100 μg mL^−1 streptomycin (Euroclone). The cells were maintained at 37 °C in a 5% CO2 humidified atmosphere.
Cellular proliferation was tested using a colorimetric assay of 3-[4,5-dimethylthiazol-2-yl]-2,5-diphenyltetrazolium bromide (MTT). We seeded 2000 cells/well in a final volume of 200 μL growth medium in 96-well plates. After 24 h the cells were stimulated with or w/o the newly synthesized compounds for 24 h, or, where indicated, for 48 h. We tested seven new synthesized compounds together with RSV reference at different concentration (1, 10, 100 μM). All compounds were dissolved in DMSO and the experimental dilutions used were made using cellular growth medium. For this reason, the cells were also incubated for 24 h with the DMSO at the same concentration used for the compounds. Incubation was terminated by adding 20 μL of MTT solution (5 mg mL^−1 in phosphate-buffered saline (PBS)) to each well, followed by incubation at 37 °C for 3 h in the dark. After, the plates were centrifuged at 2000 rpm for 15 min. The supernatant was removed, 200 μL dimethylsulfoxide (DMSO) was added to each well, and the plates were incubated for 30 min at 37 °C in the dark. Finally, the plates were read at 540 nm on a scanning multi-well spectrophotometer (Cary50MPR, Varian, Santa Clara, CA, USA).

C2C12 cells [3] = assay: H2DCFDA assay, intracellular ROS after H2O2 insult; type: cell-based, mouse; conditions: for ROS levels (H2DCFDA fluorescence): C2C12, 24 h pretreatment, 300 µM H2O2, compared to CTRL
Experimental: Indeed, the antioxidant activity of compound 6 was also evaluated using an H2DCFDA assay (Figure 6). This assay is one of the most widely used techniques for directly measuring the redox state of a cell. In order to accurately measure ROS and the cellular capability to counteract the H2O2 insult, we used cell-permeable fluorescent and chemiluminescent probes. The fluorescence intensity is proportional to the ROS levels within the cell cytosol and it is in inverse relation to the antioxidant capacity of the cells themselves. The ability to restore the basal level of fluorescence are reported in Figure 6, after 0.5 and 10 min following oxidant stimulus.
Intracellular ROS were quantified by the 2′,7′-dichlorodihydrofluorescein diacetate (H2DCF-DA Cat. No. D6883; Sigma). C2C12 cells were plated (2000 cells/well) into special optics 96-well plates (Corning-Costar, New York, NY, USA) and the cells were treated with RSV at 1 µM and Compound 6 at 1 and 10 µM for 24 h. After the incubation, cells were washed with an imaging buffer and treated with 300 µM H2O2 for an immediate fluorescence measurement. Plates were read every 50 s from 0 to 10 min for kinetic data analysis using a microplate reader (Synergy H1, BioTek), with excitation and emission wavelengths at 490 nm and 520 nm, respectively, and analyzed by Gen 5 version 2.08 (BioTek).

[4] = cited from earlier work
C2C12 cells [5] = assay: NBT assay, superoxide anion detection; type: cell-based, mouse; conditions: C2C12, 24 h incubation, 1 and 10 μM
Experimental: At first, the antioxidant effect of compound 6 was assessed by NBT assay (Figure 5). The NBT assay is based on the reduction of NBT into formazan by superoxide anion O2^-. […] The concentration of superoxide anion radical in the cells was determined by spectrophotometric method and is based on the reduction of Nitro blue tetrazolium chloride to Nitro blue-formazan in the presence of O2^-.
Since that during aging, among the ROS there are radicals as superoxide anion that can levels increase, [32] we used NBT assay in order to evaluate the antioxidant capacity of compound 6. C2C12 cells (10^6 cells) were stimulated with or w/o the compound 6 at 1 and 10 μM together with the RSV for 24 h, harvested, centrifuged for 5 min at 1200 rpm and resuspended in 1 mL 0.9% NaCl in which NBT (Nitro blue tetrazolium chloride) is dissolved 1 mg/mL. The cells were incubated for 3 h at 37 °C, centrifuged (for 10 min at 1200 rpm), resuspended in 1 mL DMSO and left 20’ in 37 °C. For the assay, the cells were plated in a 96 well plate (2 × 10^5 cell/well) and read by spectrophotometer at 550 nm on a scanning multi-well spectrophotometer (Cary50MPR, Varian, Santa Clara, CA, USA).

[6] = Log P estimated by RP-HPLC, extrapolated to 0% MeOH, SD at 95% confidence interval

Row | SMILES | Log k ([1]; 60% MeOH) | Retention factor (k) ([1]; 60% MeOH) | Log k ([1]; 65% MeOH) | Retention factor (k) ([1]; 65% MeOH) | Log k ([1]; 70% MeOH) | Retention factor (k) ([1]; 70% MeOH) | Log k ([1]; 75% MeOH) | Retention factor (k) ([1]; 75% MeOH) | Log k ([1]; 80% MeOH) | Retention factor (k) ([1]; 80% MeOH) | chromatographic logP [1, 6] | melting point | cell vitality (MTT reduction) (C2C12 cells [2]; C2C12, 48 h, 1 and 10 μM) | other results
1 | Oc1ccc(/C=C/c2ccccc2)cc1Cl [Compound 2, 2-Chloro-4-[(E)-2-phenylvinyl]phenol] | 1.0560 | 11.3757 | 0.7826 | 6.0620 | 0.5049 | 3.1984 | 0.2243 | 1.6761 | 0.0216 | 1.0510 | 4.2 ± 0.12 | 126 to 127 °C | – | –
2 | Oc1ccc(/C=C/c2cc(O)cc(O)c2)cc1 [RSV, 3,5,4′-trihydroxy-trans-stilbene, reference compound] | – | – | – | – | – | – | – | – | – | – | 2.47 ± 0.11 | – | did not change the effects respect to the control | ROS levels (H2DCFDA fluorescence) (C2C12 cells [3]): reduce the ROS levels; Log k ([1]; 20% MeOH): 1.6477; Retention factor (k) ([1]; 20% MeOH): 44.4282; Log k ([1]; 25% MeOH): 1.3573; Retention factor (k) ([1]; 25% MeOH): 22.7655; Log k ([1]; 30% MeOH): 1.0693; Retention factor (k) ([1]; 30% MeOH): 11.7294; Log k ([1]; 40% MeOH): 0.5493; Retention factor (k) ([1]; 40% MeOH): 3.5427; Log k ([1]; 50% MeOH): 0.0010; Retention factor (k) ([1]; 50% MeOH): 1.0024; bioavailability [4]: less than 1%; oral bioavailability ([4]; in vivo): almost zero
3 | Oc1ccc(/C=C/c2ccc(C(F)(F)F)cc2)cc1 [Compound 7, 4-{(E)-2-[4-(Trifluoromethyl)phenyl]vinyl}phenol] | 1.1515 | 14.1757 | 0.8368 | 6.8682 | 0.5372 | 3.4447 | 0.2568 | 1.8063 | −0.0429 | 0.9059 | 4.7 ± 0.05 | 161 to 163 °C | – | –
4 | Oc1ccc(/C=C/c2ccc(Cl)cc2)cc1 [Compound 1, 4-[(E)-2-(4-Chlorophenyl)vinyl]phenol] | 0.9828 | 9.6110 | 0.6845 | 4.8361 | 0.4010 | 2.5176 | 0.1330 | 1.3584 | −0.1255 | 0.7490 | 4.29 ± 0.07 | 184 to 185 °C | – | –
5 | Oc1ccc(/C=C/c2ccc(Cl)cc2Cl)cc1Cl [Compound 4, 2-Chloro-4-[(E)-2-(2,4-dichlorophenyl)vinyl] phenol] | 1.7713 | 59.0580 | 1.4456 | 27.8973 | 1.1149 | 13.0290 | 0.7826 | 6.0620 | 0.5423 | 3.4855 | > 5 | 135 to 136 °C | – | Log P * ± SD [1, 6]: 5.50 ± 0.14
6 | O=[N+]([O-])c1ccc(/C=C/c2ccc(O)c(Cl)c2)cc1 [Compound 5] | 0.9974 | 9.9412 | 0.7161 | 5.2008 | 0.4442 | 2.7812 | 0.1536 | 1.4243 | −0.0669 | 0.8573 | 4.22 ± 0.09 | – | non-significant dose-dependent decrease of vitality | –
7 | Oc1ccc(/C=C/c2ccc(C(F)(F)F)cc2)cc1Cl [Compound 6, 2-Chloro-4-{(E)-2-[4-(trifluoromethyl)phenyl]vinyl}phenol] | 1.4227 | 26.4651 | 1.0820 | 12.0776 | 0.7645 | 5.8149 | 0.4605 | 2.8871 | 0.1498 | 1.4118 | 5.21 ± 0.06 | 117 to 118.4 °C | enhanced vitality | cell vitality (MTT reduction) (C2C12 cells [2]; C2C12, 24 h, 100 μM): drastically reduced the vitality; cell vitality (MTT reduction) (C2C12 cells [2]; C2C12, 24 h, 1 and 10 μM): significant increase of the cell vitality; cell vitality (MTT reduction) (C2C12 cells [2]; C2C12, 48 h, 1 μM): moderate effect; cell vitality (MTT reduction) (C2C12 cells [2]; C2C12, 48 h, 10 μM): higher effect; O2- levels (NBT assay) (C2C12 cells [5]): significant decrease of O2^- levels; antioxidant capacity with respect to RSV (C2C12 cells [3]; C2C12, 10 μM, 300 µM H2O2): significantly higher antioxidant capacity; oxidant insult by H2O2 (H2DCFDA fluorescence) (C2C12 cells [3]; C2C12, 10 μM, 24 h pretreatment, 300 µM H2O2, stable throughout time-course): strongly counteracted; ROS levels (H2DCFDA fluorescence) (C2C12 cells [3]): reduce the ROS levels
8 | Oc1ccc(/C=C/c2ccc(Cl)cc2Cl)cc1 [Compound 3, 4-[(E)-2-(2,4-Dichlorophenyl)vinyl]phenol] | 1.4819 | 30.3325 | – | – | 0.8936 | 7.8267 | 0.6070 | 4.0455 | 0.3308 | 2.1420 | 5.11 ± 0.07 | 119 to 120 °C | – | Log k ([1]; 50% MeOH): 2.1310; Retention factor (k) ([1]; 50% MeOH): 135.2173
